Measurements from patent US9290490B2 (Merck Sharp & Dohme Corp., priority 2011, dated 2016).
Where a name gives a salt, the structure may show the parent alone. Read-outs that look alike come from different tables or passages of the source.

Molecular target: recombinant human GST-Syk (Homo sapiens (Human), UniProt P43405)
Assay: Homogeneous Time-Resolved Fluorescence (HTRF) Assay for the Recombinant Human Syk Enzyme
Format: biochemical
Settings: recombinant human GST-Syk 5 pM, ATP 25 μM
Protocol: Homogeneous Time-Resolved Fluorescence (HTRF) Assay for the Recombinant Human Syk Enzyme:
A recombinant GST-hSyk fusion protein was used to measure potency of compounds to inhibit human Syk activity. The recombinant human GST-Syk (Carna Biosciences #08-176) (5 pM final concentration) was incubated with various concentrations of the inhibitor diluted in DMSO (0.1% final concentration) for 10 minutes at room temperature in 15 mM Tris-HCl (pH 7.5), 0.01% tween 20, 2 mM DTT in 384 well plate format. To initiate the reaction the biotinylated substrate peptide (250 nM final concentration) that contains the phosphorylation site for Syk was added with magnesium (5 mM final concentration) and ATP (25 μM final concentration). Final volume of the reaction was 10 μL. Phosphorylation of the peptide was allowed to proceed for 45′ at room temperature. To quench the reaction and detect the phosphorylated product, 2 nM of a Europium-anti-phosphotyrosine antibody (Perkin Elmer #AD0161) and 70 nM SA-APC (Perkin-Elmer #CR130-100) were added together in 15 mM Tris pH 7.5, 40 mM EDTA, 0.01% Tween 20. Final volume of the quenching solution was 10 μL. The resulting HTRF signal was measured after 30 minutes on a EnVision (Perkin-Elmer) reader using a time-resolved fluorescence protocol. […] IC50 values are also provided for the following representative compounds: […]

[1] = read-out: rhSyk Activity (IC50)
[2] = 10-dose titration, read-out: rhSyk

SMILES	IC50 [1]	IC50 [2]
Cc1cc(Nc2nccc(C(F)(F)F)n2)cc(-c2cnc(C(=O)C3CCC(=O)CC3(C)C)s2)c1 (racemic) [Example 11, N-(3-{2-[(2,2-dimethyl-4-oxocyclohexyl)carbonyl]-1,3-thiazol-5-yl}-5-methylphenyl)-4-(trifluoromethyl)pyrimidin-2-aminium trifluoroacetate]	100 to 1000 nM	–
Cc1cc(Nc2nccc(C(F)(F)F)n2)cc(-c2cnc([C@@](O)(C3CC3)[C@H]3CC[C@H](C(=O)O)CC3)s2)c1 (single isomer, unassigned) [Example 2 (from Intermediate 28 slower eluting enantiomer), trans-4-{(R or S)-cyclopropyl(hydroxy)[5-(3-methyl-5-{[4-(trifluoromethyl)pyrimidin-2-yl]amino}phenyl)-1,3-thiazol-2-yl]methyl}cyclohexanecarboxylic]	≤ 100 nM	–
Cc1cc(Nc2nccc(C)n2)cc(-c2cnc(C(C)(O)[C@H]3CC[C@H](C(=O)O)CC3)s2)c1 (single isomer, unassigned) [Example 2-52, trans-4-[(1R or S)-hydroxy-1-(5-{3-methyl-5-[(4-methylpyrimidin-2-yl)amino]phenyl}-1,3-thiazol-2-yl)ethyl]cyclohexanecarboxylic acid]	≤ 100 nM	1 nM
Cc1cc(Nc2nccc(C(F)F)n2)cc(-c2cnc(C(C)(O)[C@H]3CC[C@H](C(=O)O)CC3)s2)c1 (single isomer, unassigned) [Example 2-77, trans-4-{(1R or S)-[5-(3-{[4-(difluoromethyl)pyrimidin-2-yl]amino}-5-methylphenyl)-1,3-thiazol-2-yl]-1-hydroxyethyl}cyclohexanecarboxylic acid]	≤ 100 nM	< 0.5 nM
Cc1cc(Nc2nccc(C(F)(F)F)n2)cc(-c2cnc(C(C)(O)C3CCC(C)(C(=O)O)CC3)s2)c1 (single isomer, unassigned) [Example 3 (isomer 3), 4-{1-hydroxy-1-[5-(3-methyl-5-{[4-(trifluoromethyl)pyrimidin-2-yl]amino}phenyl)-1,3-thiazol-2-yl]ethyl}-1-methylcyclohexanecarboxylic acid]	≤ 100 nM	–
Cc1cc(Nc2nccc(C)n2)cc(-c2cnc(CC3(O)CCC(C(=O)OC(C)(C)C)CC3)s2)c1 (single isomer, unassigned) [Example 5, Step 3 (cis isomer), tert-butyl cis-4-hydroxy-4-[(5-{3-methyl-5-[(4-methylpyrimidin-2-yl)amino]phenyl}-1,3-thiazol-2-yl)methyl]cyclohexanecarboxylate]	100 to 1000 nM	–
Cc1cc(Nc2nccc(C)n2)cc(-c2cnc(CC3(O)CCC(C(=O)OC(C)(C)C)CC3)s2)c1 (single isomer, unassigned) [Example 5, Step 3 (trans isomer), tert-butyl trans-4-hydroxy-4-[(5-{3-methyl-5-[(4-methylpyrimidin-2-yl)amino]phenyl}-1,3-thiazol-2-yl)methyl]cyclohexanecarboxylate]	100 to 1000 nM	318 nM
Cc1cc(Nc2nccc(C(F)(F)F)n2)cc(-c2cnc(C(C)(O)[C@H]3CC[C@H](c4nn[nH]n4)CC3)s2)c1 (single isomer, unassigned) [Example 6 (faster eluting enantiomer), 2-{[3-(2-{1-hydroxy-1-[trans-4-(2H-tetrazol-5-yl)cyclohexyl]ethyl}-1,3-thiazol-5-yl)-5-methylphenyl]amino}-4-(trifluoromethyl)pyrimidin-1-ium trifluoroacetate]	≤ 100 nM	–
Cc1cc(Nc2nccc(C(F)(F)F)n2)cc(-c2cnc(C(C)(O)[C@H]3CC[C@H](c4nn[nH]n4)CC3)s2)c1 (single isomer, unassigned) [Example 6 (slower eluting enantiomer), 2-{[3-(2-{1-hydroxy-1-[trans-4-(2H-tetrazol-5-yl)cyclohexyl]ethyl}-1,3-thiazol-5-yl)-5-methylphenyl]amino}-4-(trifluoromethyl)pyrimidin-1-ium trifluoroacetate]	≤ 100 nM	–
Cc1ccnc(Nc2cc(C)c(Br)c(-c3cnc([C@](C)(O)[C@H]4CC[C@H](C(=O)O)CC4)s3)c2)n1 (single isomer, unassigned) [Example 8, trans-4-[(1R or 1S)-1-(5-{2-bromo-3-methyl-5-[(4-methylpyrimidin-2-yl)amino]phenyl}-1,3-thiazol-2-yl)-1-hydroxyethyl]cyclohexanecarboxylic acid]	≤ 100 nM	–
C[C@](O)(c1ncc(-c2cc(CO)cc(Nc3nccc(C(F)(F)F)n3)c2)s1)[C@H]1CC[C@H](C(=O)O)CC1 (single isomer, unassigned) [Example 15, trans-4-[(1R or 1S)-1-hydroxy-1-{5-[3-(hydroxymethyl)-5-{[4-(trifluoromethyl)pyrimidin-2-yl]amino}phenyl]-1,3-thiazol-2-yl}ethyl]cyclohexanecarboxylic acid]	≤ 100 nM	< 0.5 nM
C[C@@](O)(c1ncc(-c2cc(F)cc(Nc3nccc(C(F)(F)F)n3)c2)s1)[C@H]1CC[C@H](C(=O)O)CC1 (single isomer, unassigned) [Example 17, trans-4-{(1R or 1S)-1-[5-(3-fluoro-5-{[4-(trifluoromethyl)pyrimidin-2-yl]amino}phenyl)-1,3-thiazol-2-yl]-1-hydroxyethyl}cyclohexanecarboxylic acid]	≤ 100 nM	1 nM
CC(O)(c1ncc(-c2cc(Nc3nccc(C(F)(F)F)n3)cc(C(F)F)c2)s1)[C@H]1CC[C@H](C(=O)O)CC1 (single isomer, unassigned) [Example 18, trans-4-((1R or 1S)-{5-[3-(difluoromethyl)-5-{[4-(trifluoromethyl)pyrimidin-2-yl]amino}phenyl]-1,3-thiazol-2-yl}-1-hydroxyethyl)cyclohexanecarboxylic acid]	≤ 100 nM	< 0.5 nM
Cc1cc(Nc2nccc(C(F)(F)F)n2)cc(-c2cnc(C(=O)C3CCC4(CC3)OCCO4)s2)c1 [Example 1-20, 1,4-dioxaspiro[4.5]dec-8-yl[5-(3-methyl-5-{[4-(trifluoromethyl)pyrimidin-2-yl]amino}phenyl)-1,3-thiazol-2-yl]methanone]	100 to 1000 nM	–
CCCCC(=O)OC1CCC(C(C)(O)c2ncc(-c3cc(C)cc(Nc4nccc(C(F)(F)F)n4)c3)s2)CC1 (centres unmarked) [Example 2-3]	1000 to 10000 nM	1260 nM

Next, values leading:

IC50 [1]	IC50 [2]	SMILES
≤ 100 nM	–	CCCCOC(=O)[C@H]1CC[C@H](C(C)(O)c2ncc(-c3cc(C)cc(Nc4nccc(C(F)(F)F)n4)c3)s2)CC1 (relative stereo) [Example 1, Step 1, butyl trans-4-{1-hydroxy-1-[5-(3-methyl-5-{[4-(trifluoromethyl)pyrimidin-2-yl]amino}-phenyl)-1,3-thiazol-2-yl]ethyl}cyclohexanecarboxylate]
100 to 1000 nM	–	CCCCOC(=O)[C@H]1CC[C@H](C(C)(O)c2ncc(-c3cc(C)cc(Nc4nccc(C(F)F)n4)c3)s2)CC1 (single isomer, unassigned)
≤ 100 nM	–	Cc1cc(Nc2nccc(C(F)(F)F)n2)cc(-c2cnc([C@@](O)(C3CC3)[C@H]3CC[C@H](C(=O)O)CC3)s2)c1 (single isomer, unassigned) [Example 2 (from Intermediate 28 faster eluting enantiomer), trans-4-{(R or S)-cyclopropyl(hydroxy)[5-(3-methyl-5-{[4-(trifluoromethyl)pyrimidin-2-yl]amino}phenyl)-1,3-thiazol-2-yl]methyl}cyclohexanecarboxylic acid]
≤ 100 nM	–	Cc1cc(Nc2nccc(C)n2)cc(-c2cnc(C[C@H]3CC[C@@H](C(=O)O)CC3)s2)c1 (single isomer, unassigned) [Example 13 (cis, faster eluting isomer), cis-4-[(5-{3-methyl-5-[(4-methylpyrimidin-2-yl)amino]phenyl}-1,3-thiazol-2-yl)methyl]cyclohexanecarboxylic acid]
≤ 100 nM	–	Cc1cc(Nc2nccc(C)n2)cc(-c2cnc(C[C@H]3CC[C@H](C(=O)O)CC3)s2)c1 (single isomer, unassigned) [Example 13 (trans, slower eluting isomer), trans-4-[(5-{3-methyl-5-[(4-methylpyrimidin-2-yl)amino]-phenyl}-1,3-thiazol-2-yl)methyl]cyclohexanecarboxylic acid]
≤ 100 nM	1 nM	CC(O)(c1ncc(-c2cc(Nc3nccc(C(F)(F)F)n3)cc(C3CC3)c2)s1)[C@H]1CC[C@H](C(=O)O)CC1 (single isomer, unassigned) [Example 16, trans-4-{(1R or 1S)-[5-(3-cyclopropyl-5-{[4-(trifluoromethyl)pyrimidin-2-yl]amino}phenyl)-1,3-thiazol-2-yl]-1-hydroxyethyl}cyclohexanecarboxylic acid]
≤ 100 nM	–	Cc1cc(Nc2nccc(C)n2)cc(-c2cnc(C[C@]3(O)CC[C@H](C(=O)O)CC3)s2)c1 [5 (trans isomer), trans-4-hydroxy-4-[(5-{3-methyl-5-[(4-methylpyrimidin-2-yl)amino]phenyl}-1,3-thiazol-2-yl)methyl]cyclohexanecarboxylic acid]
≤ 100 nM	93 nM	CCC(=O)O[C@@H]1CCC(C(C)(O)c2ncc(-c3cc(C)cc(Nc4nccc(C)n4)c3)s2)C[C@H]1C (some centres unmarked) [Example 2-16]
